Measurements taken from patent US8192951B2, “Glycolysis-inhibiting substances in cell culture” (Wyeth LLC, priority 2006, dated 2012).

Columns and labels:
[1] = tested on: α-GDF-8 cells (CHO cells engineered to express a monoclonal antibody against GDF-8); assay: Cell growth of α-GDF-8 cells in culture dishes with varying 2-deoxyglucose (Example 1); type: cell-based, Chinese Hamster
Experimental: Materials and Methods: Chinese Hamster Ovary (“CHO”) cells engineered to express a monoclonal antibody against growth and differentiation factor 8 (“α-GDF-8 cells”) (see […] et al., Neutralizing Antibodies Against GDF-8 and Uses Therefor, US20040142382 A1) were grown in culture dishes in Medium 1 supplemented with glucose to a final initial concentration of 9 g/L with varying concentrations of 2-deoxyglucose.

α-GDF-8 cells [2] = assay: Lactate, growth, viability and titer of α-GDF-8 cells in culture dishes, two passages (Example 2); type: cell-based, Chinese Hamster; set-up: key to Gluc: glucose in g/L; viab: unit not given here
Experimental: Materials and Methods: α-GDF-8 cells were grown in culture dishes in Medium 1 containing approximately 6 g/L glucose with varying concentrations of 2-deoxyglucose. Some α-GDF-8 cultures were optionally supplemented with glucose to a final initial concentration of 9 g/L. Cells were passaged twice and grown for three days after each passage. At the end of three days, each of the passaged cultures was measured for viability, cell density, glucose levels, lactate levels and α-GDF-8 titer. Specific titer production rate (“Qp”) and specific lactate uptake rate (“Qlact”) were calculated. Qlact was calculated as follows: ((final lactate level−initial lactate level)/(final cell density−initial cell density))×growth rate×24, where lactate levels are measured in g/L, cell densities are measured in 10^6 cells/ml, growth rate is measured as l/h, and the final Qlact is calculated as mg/e6/day. Qp was calculated as follows: ((final titer−initial titer)/(final cell density−initial cell density))×growth rate×24, where titer is measured in mg/L, cell density is measured in 10^6 cells/ml, growth rate is measured as 1/h, and Qp is calculated as μg/e6/day.

α-GDF-8 cells [3] = assay: α-GDF-8 cells in 1 L Bioreactors, shift on day 4 or day 6 (Example 3); type: cell-based, Chinese Hamster
Experimental: Materials and Methods: α-GDF-8 cells were grown in Medium 2 in 1 L Bioreactors and fed with Medium 3. Some of the cultures were supplemented with 0.5 g/L 2-deoxyglucose at the beginning of the culture. The cultures were shifted from 37° Celsius to 31° Celsius on either day 4 (“early shift”) or day 6 (“late shift”). [table]

α-GDF-8 cells [4] = assay: α-GDF-8 cells in 1 L Bioreactors, shift on day 5 or day 6 (Example 4); type: cell-based, Chinese Hamster
Experimental: Materials and Methods: α-GDF-8 cells were grown in Medium 2 in 1 L Bioreactors and fed with Medium 3. Some of the cultures were supplemented with 0.5 g/L 2-deoxyglucose at the beginning of the culture. The cells were fed with either 3 g/L glucose or 0.3 g/L 2-deoxyglucose on day 4 and with either 10% feed medium (by volume) or 10% feed medium (by volume) supplemented with 0.2 g/L 2-deoxyglucose on day 5. The cultures were shifted from 37° Celsius to 31° Celsius on either day 5 (“early shift”) or day 6 (“late shift”). Additional feeds were provided on days 7 and 10. [table]

α-GDF-8 cells [5] = assay: α-GDF-8 cells in 1 L Bioreactors in the presence of high glucose (Example 5); type: cell-based, Chinese Hamster; settings: 0.5 g/L 2-deoxyglucose
Experimental: Materials and Methods: α-GDF-8 cells were grown in Medium 2 in 1 L Bioreactors and fed with Medium 3. The starting culture media were either supplemented or not with 0.5 g/L 2-deoxyglucose. The cells were fed on days 3, 5, 7, 10 and 12 to keep the glucose level at above approximately 8 g/L. The cultures lacking 2-deoxyglucose were shifted from 37° Celsius to 31° Celsius on day 4, while the cultures containing 2-deoxyglucose were shifted from 37° Celsius to 31° Celsius on day 5.

rats = settings: fed to rats, without decreasing total food intake; cited from earlier work
[6] = first passage, 0.25 g/L deoxyglucose, 9 g/L glucose
[7] = first passage, 0.5 g/L deoxyglucose, 6 g/L glucose
[8] = first passage, 0.5 g/L deoxyglucose, 9 g/L glucose
[9] = first passage, 1 g/L deoxyglucose, 9 g/L glucose
[10] = second passage, 0.25 g/L deoxyglucose, 9 g/L glucose
[11] = second passage, 0.5 g/L deoxyglucose, 6 g/L glucose
[12] = second passage, 0.5 g/L deoxyglucose, 9 g/L glucose
[13] = second passage, 1 g/L deoxyglucose, 6 g/L glucose
[14] = second passage, 1 g/L deoxyglucose, 9 g/L glucose
[15] = 0.5 g/L 2-deoxyglucose, early shift (day 4)
[16] = 0.5 g/L 2-deoxyglucose, late shift (day 6)

O=CC[C@@H](O)[C@H](O)[C@H](O)CO [2-deoxyglucose]
specific growth rate (μ) ([1]; 1 g/L 2-deoxyglucose, 9 g/L glucose (ratio 1:9)): over 0.02 l/h | specific growth rate (μ) ([1]; 2.5 g/L 2-deoxyglucose, 9 g/L glucose): approximately 0.015 l/h | effect of increasing amounts on specific growth rate ([1]; 9 g/L glucose): reduced the specific growth rate in a dose-dependent manner | effect on accumulation of lactate (α-GDF-8 cells [2]; culture dishes, dose-dependent): reduced the accumulation of lactate in the culture in a dose-dependent manner | effect on specific growth rate (α-GDF-8 cells [2]; culture dishes, dose-dependent): negatively affected | effect on α-GDF-8 titer (α-GDF-8 cells [2]; culture dishes, dose-dependent): reduced the α-GDF-8 titer in a dose-dependent manner | Gluc (α-GDF-8 cells [2]; [6]): 7.55 | Qlact (α-GDF-8 cells [2]; [6]): 0.899 mg/e6/day | c.d (end) (α-GDF-8 cells [2]; [6]): 1.3 10^6 cells/ml | lact (α-GDF-8 cells [2]; [6]): 1.53 g/L | viab (α-GDF-8 cells [2]; [6]): 99.7 | μ (specific growth rate) (α-GDF-8 cells [2]; [6]): 0.032 h⁻¹ | Gluc (α-GDF-8 cells [2]; [7]): 5.21 | Qlact (α-GDF-8 cells [2]; [7]): 0.701 mg/e6/day | c.d (end) (α-GDF-8 cells [2]; [7]): 1.24 10^6 cells/ml | lact (α-GDF-8 cells [2]; [7]): 1.2 g/L | viab (α-GDF-8 cells [2]; [7]): 99.1 | μ (specific growth rate) (α-GDF-8 cells [2]; [7]): 0.03 h⁻¹ | Gluc (α-GDF-8 cells [2]; [8]): 7.88 | Qlact (α-GDF-8 cells [2]; [8]): 0.727 mg/e6/day | c.d (end) (α-GDF-8 cells [2]; [8]): 1.12 10^6 cells/ml | lact (α-GDF-8 cells [2]; [8]): 1.22 g/L | viab (α-GDF-8 cells [2]; [8]): 99.3 | μ (specific growth rate) (α-GDF-8 cells [2]; [8]): 0.028 h⁻¹ | Gluc (α-GDF-8 cells [2]; [9]): 8.13 | Qlact (α-GDF-8 cells [2]; [9]): 0.553 mg/e6/day | c.d (end) (α-GDF-8 cells [2]; [9]): 1.05 10^6 cells/ml | lact (α-GDF-8 cells [2]; [9]): 0.9 g/L | viab (α-GDF-8 cells [2]; [9]): 99.7 | μ (specific growth rate) (α-GDF-8 cells [2]; [9]): 0.027 h⁻¹ | Gluc (α-GDF-8 cells [2]; [10]): 7.25 | Qlact (α-GDF-8 cells [2]; [10]): 0.576 mg/e6/day | Qp (α-GDF-8 cells [2]; [10]): 15.477 μg/e6/day | c.d (end) (α-GDF-8 cells [2]; [10]): 3.2 10^6 cells/ml | lact (α-GDF-8 cells [2]; [10]): 2.17 g/L | titer (α-GDF-8) (α-GDF-8 cells [2]; [10]): 58.28 mg/L | viab (α-GDF-8 cells [2]; [10]): 99.5 | μ (specific growth rate) (α-GDF-8 cells [2]; [10]): 0.035 h⁻¹ | Gluc (α-GDF-8 cells [2]; [11]): 5.04 | Qlact (α-GDF-8 cells [2]; [11]): 0.415 mg/e6/day | Qp (α-GDF-8 cells [2]; [11]): 13.135 μg/e6/day | c.d (end) (α-GDF-8 cells [2]; [11]): 2.6 10^6 cells/ml | lact (α-GDF-8 cells [2]; [11]): 1.36 g/L | titer (α-GDF-8) (α-GDF-8 cells [2]; [11]): 43 mg/L | viab (α-GDF-8 cells [2]; [11]): 99 | μ (specific growth rate) (α-GDF-8 cells [2]; [11]): 0.033 h⁻¹ | Gluc (α-GDF-8 cells [2]; [12]): 7.65 | Qlact (α-GDF-8 cells [2]; [12]): 0.506 mg/e6/day | Qp (α-GDF-8 cells [2]; [12]): 14.252 μg/e6/day | c.d (end) (α-GDF-8 cells [2]; [12]): 2.8 10^6 cells/ml | lact (α-GDF-8 cells [2]; [12]): 1.79 g/L | titer (α-GDF-8) (α-GDF-8 cells [2]; [12]): 50.37 mg/L | viab (α-GDF-8 cells [2]; [12]): 99.6 | μ (specific growth rate) (α-GDF-8 cells [2]; [12]): 0.033 h⁻¹ | Gluc (α-GDF-8 cells [2]; [13]): 6.51 | Qlact (α-GDF-8 cells [2]; [13]): 0.290 mg/e6/day | Qp (α-GDF-8 cells [2]; [13]): 12.038 μg/e6/day | c.d (end) (α-GDF-8 cells [2]; [13]): 1.5 10^6 cells/ml | lact (α-GDF-8 cells [2]; [13]): 0.68 g/L | titer (α-GDF-8) (α-GDF-8 cells [2]; [13]): 28.22 mg/L | viab (α-GDF-8 cells [2]; [13]): 98.6 | μ (specific growth rate) (α-GDF-8 cells [2]; [13]): 0.027 h⁻¹ | Gluc (α-GDF-8 cells [2]; [14]): 9 | Qlact (α-GDF-8 cells [2]; [14]): 0.290 mg/e6/day | Qp (α-GDF-8 cells [2]; [14]): 12.400 μg/e6/day | c.d (end) (α-GDF-8 cells [2]; [14]): 1.9 10^6 cells/ml | lact (α-GDF-8 cells [2]; [14]): 0.98 g/L | titer (α-GDF-8) (α-GDF-8 cells [2]; [14]): 34.85 mg/L | viab (α-GDF-8 cells [2]; [14]): 99 | μ (specific growth rate) (α-GDF-8 cells [2]; [14]): 0.028 h⁻¹ | Qlact (α-GDF-8 cells [2]; second passage, 1 g/L deoxyglucose, 9 g/L glucose, listed as 2-Deoxyglucose): 0.349 mg/e6/day | effect on viability of the cells (α-GDF-8 cells [2]; up to a ratio of 2-deoxyglucose to glucose of 1 to 6): largely unaffected | final titer vs culture lacking 2-deoxyglucose (α-GDF-8 cells [3]; [15]): slightly higher | lactate levels vs culture lacking 2-deoxyglucose (α-GDF-8 cells [3]; [15]): slightly lower | cell density at the time of the shift (α-GDF-8 cells [3]; [16]): approximately 18 ×e^6/mL | final titer vs culture lacking 2-deoxyglucose (α-GDF-8 cells [3]; [16]): slightly higher | lactate level at the time of the shift (α-GDF-8 cells [3]; [16]): approximately 6 g/L | lactate levels vs culture lacking 2-deoxyglucose (α-GDF-8 cells [3]; [16]): slightly lower | viability vs late shifted cells without 2-deoxyglucose (α-GDF-8 cells [3]; [16]): significantly higher | cell density vs the other three conditions (α-GDF-8 cells [3]; 0.5 g/L 2-deoxyglucose, late shift (day 6), from approximately day 4): significantly higher | lactate level at the time of the shift (α-GDF-8 cells [3]; early shift (day 4), stated for the two early shifted cultures, with and without 2-deoxyglucose): 4 to 5 g/L | final lactate concentration vs early shifted cultures (α-GDF-8 cells [4]; [16]): lower | α-GDF-8 produced per cell vs other three conditions (α-GDF-8 cells [4]; [16]): less α-GDF-8 per cell | cell density vs the other three conditions (α-GDF-8 cells [4]; 0.5 g/L 2-deoxyglucose, late shift (day 6), from approximately day 5): significantly higher | glucose uptake (α-GDF-8 cells [4]; 2-deoxyglucose in the culture medium, early and late shift): decrease | overall titer of α-GDF-8 vs other culture conditions (α-GDF-8 cells [4]; all four culture conditions): similar | lactate accumulation vs cultures lacking 2-deoxyglucose (α-GDF-8 cells [5]; glucose above approximately 8 g/L, shift day 5): significantly lower | α-GDF-8 titer vs culture lacking 2-deoxyglucose (α-GDF-8 cells [5]; high glucose, by day 14): slightly higher | cell density vs culture lacking 2-deoxyglucose (α-GDF-8 cells [5]; high glucose, middle stage of the culture): slightly higher | overall integrated viable cell density vs cells without 2-deoxyglucose (α-GDF-8 cells [5]; high glucose, shifted one day later): higher | glucose/energy flux (rats): reduces glucose/energy flux
